# Starred links: 1 amine or outer side, 2 acyl side, 3 side chain; linkers in the order of their positions; H or OH if unused. Non-standard residues stand in square brackets, D forms with d. Residues, ends and D or L forms follow the SMILES beside them. Groups on a side chain read outwards from the residue. X2 = N=C(N)NCCC[C@@H](C(=O)[*:2])N(CCCCCC(=O)[C@H](CC(=O)O)N[*:3])[*:1]; pGlu = O=C1CC[C@@H](C(=O)O)N1
# Biological target: T1, Orexin receptor type 2 (Homo sapiens, UniProt O43614)
# T1 sequence (O43614 whole entry): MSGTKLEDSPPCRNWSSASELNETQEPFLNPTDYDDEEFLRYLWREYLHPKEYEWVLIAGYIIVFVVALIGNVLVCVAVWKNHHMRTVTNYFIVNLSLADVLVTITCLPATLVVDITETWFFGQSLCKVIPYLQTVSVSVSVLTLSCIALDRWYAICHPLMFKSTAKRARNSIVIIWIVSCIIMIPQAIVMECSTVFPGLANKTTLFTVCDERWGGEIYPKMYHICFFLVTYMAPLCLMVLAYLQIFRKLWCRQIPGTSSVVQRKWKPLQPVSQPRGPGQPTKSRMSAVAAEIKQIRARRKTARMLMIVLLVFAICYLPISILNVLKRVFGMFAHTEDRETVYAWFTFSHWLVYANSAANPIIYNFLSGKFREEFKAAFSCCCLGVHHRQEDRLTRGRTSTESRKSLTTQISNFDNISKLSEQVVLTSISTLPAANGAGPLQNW
# Assay: Effective agonist concentration to the human Orexin receptor type 2 was determined using the Xlfit program
# Assay type: functional
row,Compound,EC50
1,CC[C@H](C)[C@H](NC(=O)[C@H](Cc1cnc[nH]1)NC(=O)[C@H](CC(N)=O)NC(=O)CNC(=O)[C@H](CO)NC(=O)[C@H](C)NC(=O)[C@H](CCC(N)=O)NC(=O)[C@H](CC(C)C)NC(=O)[C@H](CC(C)C)NC(=O)[C@H](CCCNC(=N)N)NC(=O)[C@H](CCC(N)=O)NC(=O)[C@H](CC(C)C)NC(=O)[C@H](CCCNC(=N)N)NC(=O)CNC(=O)[C@H](CCC(N)=O)NC(=O)[C@H](CC(C)C)NC(=O)CN)C(=O)N[C@@H](C)C(=O)NCC(=O)N[C@@H](C)C(=O)N[C@@H](CC(C)C)C(=O)N[C@H](C(=O)N[C@@H](CCSC)C(=O)O)[C@@H](C)O,3.15 µM
2,CC[C@H](C)[C@H](NC(=O)CNC(=O)[C@H](C)NC(=O)[C@H](C)NC(=O)[C@H](Cc1c[nH]cn1)NC(=O)[C@H](CC(N)=O)NC(=O)CNC(=O)[C@H](C)NC(=O)CNC(=O)[C@H](Cc1c[nH]cn1)NC(=O)[C@H](CC(C)C)NC(=O)[C@@H](N)CC(C)C)C(=O)N[C@@H](CC(C)C)C(=O)N[C@H](C(=O)N[C@@H](CC(C)C)C(=O)O)[C@@H](C)O (H-LLHGAGNHAAGILTL-OH),> 1000 µM
3,CC[C@H](C)[C@H](NC(=O)CNC(=O)[C@H](C)NC(=O)[C@H](C)NC(=O)[C@H](Cc1cnc[nH]1)NC(=O)[C@H](CC(N)=O)NC(=O)CNC(=O)[C@H](CO)NC(=O)[C@H](C)NC(=O)[C@H](CCC(N)=O)NC(=O)[C@H](CC(C)C)NC(=O)[C@H](CC(C)C)NC(=O)[C@H](CCCNC(=N)N)NC(=O)[C@H](CCC(N)=O)NC(=O)[C@@H]1CCCN1C(=O)[C@H](CCCNC(=N)N)NC(=O)CNC(=O)[C@H](CCC(N)=O)NC(=O)[C@H](CC(C)C)NC(=O)CN)C(=O)N[C@@H](CC(C)C)C(=O)N[C@H](C(=O)N[C@@H](CCSC)C(=O)O)[C@@H](C)O (H-GLQGRPQRLLQASGNHAAGILTM-OH),0.79 µM
4,CC[C@H](C)[C@H](NC(=O)CNC(=O)[C@H](C)NC(=O)[C@H](C)NC(=O)[C@H](Cc1cnc[nH]1)NC(=O)[C@H](CC(N)=O)NC(=O)CNC(=O)[C@H](CO)NC(=O)[C@H](C)NC(=O)[C@H](CCC(N)=O)NC(=O)[C@H](CC(C)C)NC(=O)[C@H](CC(C)C)NC(=O)[C@@H]1CCCN1C(=O)[C@H](CCC(N)=O)NC(=O)[C@H](CC(C)C)NC(=O)[C@H](CCCNC(=N)N)NC(=O)CNC(=O)[C@H](CCC(N)=O)NC(=O)[C@H](CC(C)C)NC(=O)CN)C(=O)N[C@@H](CC(C)C)C(=O)N[C@H](C(=O)N[C@@H](CCSC)C(=O)O)[C@@H](C)O (H-GLQGRLQPLLQASGNHAAGILTM-OH),0.68 µM
5,CC[C@H](C)[C@H](NC(=O)CNC(=O)[C@H](C)NC(=O)[C@H](C)NC(=O)[C@@H](N)Cc1cnc[nH]1)C(=O)N[C@@H](CC(C)C)C(=O)N[C@H](C(=O)N[C@@H](CC(C)C)C(=O)O)[C@@H](C)O (H-HAAGILTL-OH),> 1000 µM

# Now those with a lower EC50, led by results:
row,EC50,Compound
1,0.64 µM,CC[C@H](C)[C@H](NC(=O)CNC(=O)[C@H](C)NC(=O)[C@H](C)NC(=O)[C@H](Cc1cnc[nH]1)NC(=O)[C@H](CC(N)=O)NC(=O)CNC(=O)[C@H](C)NC(=O)CNC(=O)[C@H](Cc1cnc[nH]1)NC(=O)[C@H](CC(C)C)NC(=O)[C@H](CC(C)C)NC(=O)[C@H](CCC(=O)O)NC(=O)[C@H](Cc1ccc(O)cc1)NC(=O)[C@H](CC(C)C)NC(=O)[C@H](CCCNC(=N)N)NCCCCCC(=O)[C@H](CC(=O)O)NC(=O)[C@@H]1CCCN1C(=O)[C@H](CC(C)C)NC(=O)[C@@H]1CCCN1C(=O)[C@@H]1CCC(=O)N1)C(=O)N[C@@H](CC(C)C)C(=O)N[C@H](C(=O)N[C@@H](CC(C)C)C(=O)O)[C@@H](C)O (H-[X2]([Pro-Leu-Pro-pGlu])LYELLHGAGNHAAGILTL-OH)
2,0.06 µM,CC[C@H](C)[C@H](NC(=O)CNC(=O)[C@H](C)NC(=O)[C@H](C)NC(=O)[C@H](Cc1cnc[nH]1)NC(=O)[C@H](CC(N)=O)NC(=O)CNC(=O)[C@H](CO)NC(=O)[C@H](C)NC(=O)[C@H](CCC(N)=O)NC(=O)[C@H](CC(C)C)NC(=O)[C@H](CC(C)C)NC(=O)[C@H](CCCNC(=N)N)NC(=O)[C@H](CCC(N)=O)NC(=O)[C@H](CC(C)C)NC(=O)[C@H](CCCNC(=N)N)NC(=O)CNC(=O)[C@H](CCC(N)=O)NC(=O)[C@@H]1CCCN1C(=O)CN)C(=O)N[C@@H](CC(C)C)C(=O)N[C@H](C(=O)N[C@@H](CCSC)C(=O)O)[C@@H](C)O (H-GPQGRLQRLLQASGNHAAGILTM-OH)
3,0.36 µM,CC[C@H](C)[C@H](NC(=O)CNC(=O)[C@H](C)NC(=O)[C@H](C)NC(=O)[C@H](Cc1c[nH]cn1)NC(=O)[C@H](CC(N)=O)NC(=O)CNC(=O)[C@H](CO)NC(=O)[C@H](C)NC(=O)[C@H](CCC(N)=O)NC(=O)[C@H](CC(C)C)NC(=O)[C@H](CC(C)C)NC(=O)[C@H](CCCN=C(N)N)NC(=O)[C@@H]1CCCN1C(=O)[C@H](CC(C)C)NC(=O)[C@H](CCCN=C(N)N)NC(=O)CNC(=O)[C@H](CCC(N)=O)NC(=O)[C@H](CC(C)C)NC(=O)CN)C(=O)N[C@@H](CC(C)C)C(=O)N[C@H](C(=O)N[C@@H](CCSC)C(=O)O)[C@@H](C)O (stereo in doubt; form 2)
